Assay results as given in patent US20080319000A1, “Use of 3,1IB-Cis-Dihydrotetrabenazine for the Treatment of Symptoms of Huntingtons Disease” (CAMBRIDGE LABORATORIES (IRELAND) LIMITED, priority 2005, published 2008).

What was measured:
dopamine receptor = assay: Dopamine receptor binding
[1] = biological target: T1, monoamine oxidase isoform A (Homo sapiens, UniProt P21397); assay: Monoamine oxidase A inhibition; format: biochemical
T1 sequence (P21397 1-527): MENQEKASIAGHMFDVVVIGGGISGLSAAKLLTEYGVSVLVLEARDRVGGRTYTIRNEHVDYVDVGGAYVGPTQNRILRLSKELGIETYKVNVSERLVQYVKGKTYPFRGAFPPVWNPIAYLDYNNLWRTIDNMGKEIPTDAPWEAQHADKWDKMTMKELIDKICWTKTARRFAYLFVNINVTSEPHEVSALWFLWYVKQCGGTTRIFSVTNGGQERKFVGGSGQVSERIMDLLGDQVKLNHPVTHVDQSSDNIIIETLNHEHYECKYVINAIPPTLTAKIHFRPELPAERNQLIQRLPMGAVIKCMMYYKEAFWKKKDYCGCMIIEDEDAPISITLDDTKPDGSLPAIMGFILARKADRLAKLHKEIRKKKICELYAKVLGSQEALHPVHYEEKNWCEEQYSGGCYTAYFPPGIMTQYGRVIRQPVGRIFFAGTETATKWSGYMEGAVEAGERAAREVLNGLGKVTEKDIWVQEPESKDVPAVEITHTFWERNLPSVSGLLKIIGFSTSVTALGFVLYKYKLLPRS

Male Sprague-Dawley rats = assay: Spontaneous locomotor activity in rats (sedative properties); format: in vivo; settings: for Inactivity Duration / Large movements Duration / Large movements Occurrence: rats, 20 min period, mean ± SEM n=12
Experimental: A study was carried out in rats to determine whether the dihydrotetrabenazine isomers of the invention have sedative properties. […] Male Sprague-Dawley rats, (Charles River Laboratories, Saint-Germain/L'Arbresle, France), weighing 200-250 g at the beginning of the study, were used for the studies. […] The rats were allowed to acclimatize to their conditions for at least five days before commencement of the study. The rats received food ([…], France, ref. 811002) and water (tap water in water bottle) ad libitum. Solutions of each test compound in corn oil were freshly prepared on the day of the experiment. Haloperidol was prepared in hydroxyethylcellulose, 0.5% in deionized water. Either the vehicle or the test compounds were administered as a single dose (0.3, 1, 3 and 10 mg/kg, 2 mL/kg i.p.). The reference compound haloperidol (1 mg/kg) was administered i.p. […] The animals were placed in plexiglass cages under a video camera in a room with low light intensity (maximum 50 lux). At forty five minutes and 3 hours after administration, locomotor activity was determined during 20 minute periods using a video image analyzer (Videotrack, View Point, France). […] The number and duration of ambulatory movements and duration of inactivity was measured. At the end of the locomotor activity measurement (45 minutes and 3 hours), palpebral closure and arousal were be scored as follows in the plexiglass cage: […] Image tracking was performed using a video camera placed above the plexiglass cage, recording overall locomotor activity. […] The results were expressed as the means ±SEMs of the 12 individual values. Statistical analyses were carried out using ANOVA (one way) and Dunnett's t-test and with the non parametric test of Kruskal-Wallis followed by a Mann & Whitney U-test for the sedation cotation. A p value of p<0.05 was taken as indicating significance. Group size n=12 Group 1: Reference, haloperidol (1 mg/kg i.p.) Group 2: Vehicle control group (2 ml/kg i.p.) Group 3: tetrabenazine (0.3 mg/kg i.p) Group 4: tetrabenazine (1 mg/kg i.p) Group 5: tetrabenazine (3 mg/kg i.p) Group 6: tetrabenazine (10 mg/kg i.p) Group 7: […]

[2] = biological target: T2, catechol O-methyl transferase (COMT) (Homo sapiens, UniProt P21964); assay: COMT inhibition; format: biochemical
T2 sequence (P21964 1-271): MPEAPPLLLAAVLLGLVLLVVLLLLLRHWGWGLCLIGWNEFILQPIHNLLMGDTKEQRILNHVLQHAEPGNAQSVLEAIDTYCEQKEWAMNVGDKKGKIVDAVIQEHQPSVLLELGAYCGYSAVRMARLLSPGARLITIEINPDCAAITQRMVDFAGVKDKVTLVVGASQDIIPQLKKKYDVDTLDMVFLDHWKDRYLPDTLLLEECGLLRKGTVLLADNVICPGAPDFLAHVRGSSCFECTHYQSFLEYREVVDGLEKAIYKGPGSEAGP

adrenergic receptors = assay: Adrenergic receptor inhibition; format: binding
[3] = biological target: Dopamine Transporter (DAT) (Homo sapiens, UniProt Q01959); assay: Dopamine Transporter (DAT) binding
[4] = 0.3 mg/kg i.p., 45 minutes after administration
[5] = 0.3 mg/kg i.p., 3 hours after administration
[6] = 1 mg/kg i.p., 45 minutes after administration
[7] = 1 mg/kg i.p., 3 hours after administration
[8] = 3 mg/kg i.p., 45 minutes after administration
[9] = 3 mg/kg i.p., 3 hours after administration
[10] = 10 mg/kg i.p., 45 minutes after administration
[11] = 10 mg/kg i.p., 3 hours after administration

Sequence of Dopamine Transporter (DAT) (Q01959 whole entry, species assumed): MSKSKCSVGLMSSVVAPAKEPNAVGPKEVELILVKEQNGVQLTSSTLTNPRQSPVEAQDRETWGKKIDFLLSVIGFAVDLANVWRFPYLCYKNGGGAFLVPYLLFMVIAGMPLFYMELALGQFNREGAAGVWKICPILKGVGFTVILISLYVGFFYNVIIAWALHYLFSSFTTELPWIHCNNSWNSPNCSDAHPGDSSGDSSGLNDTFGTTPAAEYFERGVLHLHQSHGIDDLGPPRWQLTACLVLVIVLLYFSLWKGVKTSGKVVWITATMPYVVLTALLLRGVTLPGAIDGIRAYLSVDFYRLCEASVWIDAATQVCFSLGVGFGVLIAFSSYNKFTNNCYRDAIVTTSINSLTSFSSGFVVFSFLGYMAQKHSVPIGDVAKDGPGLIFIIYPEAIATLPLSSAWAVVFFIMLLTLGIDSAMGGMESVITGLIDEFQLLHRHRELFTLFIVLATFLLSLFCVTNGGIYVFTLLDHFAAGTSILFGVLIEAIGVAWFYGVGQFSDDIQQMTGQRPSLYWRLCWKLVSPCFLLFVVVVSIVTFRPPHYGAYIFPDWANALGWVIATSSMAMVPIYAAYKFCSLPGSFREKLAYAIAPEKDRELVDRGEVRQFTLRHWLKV

`COc1cc2c(cc1OC)[C@H]1C[C@H](O)[C@@H](CC(C)C)CN1CC2` (single isomer, unassigned) [Isomer B] was tested, and the “dopamine receptor binding activity” value (dopamine receptor) was “only weak or non-existent”, the “inhibitory activity against monoamine oxidase isoform A” value [1] was “no inhibitory activity” and the sedative effect (Male Sprague-Dawley rats; locomotor studies carried out on rats) was “no sedative effects were observed”. For the same molecule, the “Inactivity Duration” value (Male Sprague-Dawley rats; [4]) was 346.1 ± 36.9 s, the “Large movements Duration” value (Male Sprague-Dawley rats; [4]) was 72.0 ± 9.6 s and the “Large movements Occurrence” value (Male Sprague-Dawley rats; [4]) was 268 ± 36. The “Inactivity Duration” value (Male Sprague-Dawley rats; [5]) was 566.4 ± 44.3 s, the “Large movements Duration” value (Male Sprague-Dawley rats; [5]) was 28.9 ± 9.2 s and the “Large movements Occurrence” value (Male Sprague-Dawley rats; [5]) was 101 ± 29. For the same molecule, the “Inactivity Duration” value (Male Sprague-Dawley rats; [6]) was 334.0 ± 23.2 s, the “Large movements Duration” value (Male Sprague-Dawley rats; [6]) was 87.0 ± 7.6 s and the “Large movements Occurrence” value (Male Sprague-Dawley rats; [6]) was 297 ± 22. The “Inactivity Duration” value (Male Sprague-Dawley rats; [7]) was 525.8 ± 28.6 s, the “Large movements Duration” value (Male Sprague-Dawley rats; [7]) was 34.5 ± 6.2 s and the “Large movements Occurrence” value (Male Sprague-Dawley rats; [7]) was 125 ± 18. For the same molecule, the “Inactivity Duration” value (Male Sprague-Dawley rats; [8]) was 342.2 ± 33.3 s, the “Large movements Duration” value (Male Sprague-Dawley rats; [8]) was 89.1 ± 12.4 s and the “Large movements Occurrence” value (Male Sprague-Dawley rats; [8]) was 313 ± 38. The “Inactivity Duration” value (Male Sprague-Dawley rats; [9]) was 530.5 ± 38.0 s, the “Large movements Duration” value (Male Sprague-Dawley rats; [9]) was 31.1 ± 6.5 s and the “Large movements Occurrence” value (Male Sprague-Dawley rats; [9]) was 113 ± 17. For the same molecule, the “Inactivity Duration” value (Male Sprague-Dawley rats; [10]) was 333.1 ± 26.9 s, the “Large movements Duration” value (Male Sprague-Dawley rats; [10]) was 84.0 ± 11.2 s and the “Large movements Occurrence” value (Male Sprague-Dawley rats; [10]) was 298 ± 37. The “Inactivity Duration” value (Male Sprague-Dawley rats; [11]) was 515.0 ± 53.0 s, the “Large movements Duration” value (Male Sprague-Dawley rats; [11]) was 30.9 ± 6.4 s and the “Large movements Occurrence” value (Male Sprague-Dawley rats; [11]) was 120 ± 26. For the same molecule, the sedative effect (Male Sprague-Dawley rats; rats, 0.3, 1, 3 and 10 mg/kg i.p., 45 minutes and 3 hours after administration) was “no sedative effects at any time”, the “inhibitory activity against catechol O-methyl transferase (COMT)” value [2] was “no inhibitory activity” and the “inhibition of the adrenergic receptors” value (adrenergic receptors) was “either weakly active or inactive”. For the same molecule, the “Dopamine Transporter (DAT) binding activity” value [3] was “lack Dopamine Transporter (DAT) binding activity”.
